From patent US9924717B2, “Molecules having pesticidal utility, and intermediates, compositions, and processes, related thereto” (Dow AgroSciences LLC, priority 2016, dated 2018) come the findings set out here.

Common to all, as to assay type: in vivo
In experiment [1] the test system is Yellow Fever Mosquito (Aedes aegypti, AEDSAE) (YFM). As to the kind of experiment: Bioassays on Yellow Fever Mosquito (YFM), 96-well plate larval assay. The note with it: Table ABC rating. The protocol: Example C: Bioassays on Yellow Fever Mosquito (Aedes aegypti, AEDSAE) (“YFM”)
Certain molecules disclosed in this document were tested against YFM using procedures described in the following paragraph. In the reporting of the results, the “GPA & YFM Rating Table” was used (See Table Section).
Master plates containing 400 μg of a molecule dissolved in 100 μL of dimethyl sulfoxide (DMSO) (equivalent to a 4000 ppm solution) are used. A master plate of assembled molecules contains 15 μL per well. To this plate, 135 μL of a 90:10 water:acetone mixture is added to each well. A robot (Biomek® NXP Laboratory Automation Workstation) is programmed to dispense 15 μL aspirations from the master plate into an empty 96-well shallow plate (“daughter” plate). There are 6 reps (“daughter” plates) created per master. The created daughter plates are then immediately infested with YFM larvae.
The day before plates are to be treated, mosquito eggs are placed in Millipore water containing liver powder to begin hatching (4 g. into 400 mL). After the daughter plates are created using the robot, they are infested with 220 μL of the liver powder/larval mosquito mixture (about 1 day-old larvae). After plates are infested with mosquito larvae, a non-evaporative lid is used to cover the plate to reduce drying. Plates are held at room temperature for 3 days prior to grading. After 3 days, each well is observed and scored based on mortality. The results are indicated in the table entitled “Table ABC: Biological Results” (See Table Section).

Experiment [2] deals with Beet Armyworm (Spodoptera exigua, LAPHEG) (BAW). As to the kind of experiment: Bioassays on Beet Armyworm (BAW), 128-well diet tray assay. To be noted: for pest or weed control at 50 µg/cm2: Table ABC rating, Beet Armyworm; for mortality at 5 µg/cm2: 168 h, diet tray, second instar larvae, five to seven days, read-out: Percent control (or mortality) BAW. The protocol: (§1) Example A: Bioassays on Beet Armyworm (Spodoptera exigua, LAPHEG) (“BAW”), Corn Earworm (Helicoverpa zea, Helize) (“CEW”), and Cabbage Looper (Trichoplusia ni, TRIPNI) (“CL”)
(§2) Certain molecules disclosed in this document were tested against BAW, CEW, and CL using procedures described in the following examples. In the reporting of the results, the “BAW, CEW, & CL Rating Table” was used (See Table Section).
Bioassays on BAW were conducted using a 128-well diet tray assay. one to five second instar BAW larvae were placed in each well (3 mL) of the diet tray that had been previously filled with 1 mL of artificial diet to which 50 μg/cm^2 of the test molecule (dissolved in 50 μL of 90:10 acetone-water mixture) had been applied (to each of eight wells) and then allowed to dry. Trays were covered with a clear self-adhesive cover and held at 25° C., 14:10 light-dark for five to seven days. Percent mortality was recorded for the larvae in each well; activity in the eight wells was then averaged. The results are indicated in the table entitled “Table ABC: Biological Results” (See Table Section).
(§3) Bioassays on BAW and CL were conducted according to the procedures outlined in Example A: Bioassays on Beet Armyworm (“BAW”) and Cabbage Looper (“CL”) using the indicated concentrations.

Experiment [3] concerns Cabbage Looper (Trichoplusia ni, TRIPNI) (CL). As to the kind of experiment: Bioassays on Cabbage Looper (CL), 128-well diet tray assay. The note with it: for pest or weed control at 50 µg/cm2: Table ABC rating, Cabbage Looper; for mortality at 5 µg/cm2: 168 h, diet tray, second instar larvae, five to seven days, read-out: Percent control (or mortality) CL. The protocol: as §1, §2
Bioassays on CL were conducted using a 128-well diet tray assay. one to five second instar CL larvae were placed in each well (3 mL) of the diet tray that had been previously filled with 1 mL of artificial diet to which 50 μg/cm^2 of the test molecule (dissolved in 50 μL of 90:10 acetone-water mixture) had been applied (to each of eight wells) and then allowed to dry. Trays were covered with a clear self-adhesive cover and held at 25° C., 14:10 light-dark for five to seven days. Percent mortality was recorded for the larvae in each well; activity in the eight wells was then averaged. The results are indicated in the table entitled “Table ABC: Biological Results” (See Table Section).
as §3

Setting [4] is: 5 μg/cm^2 (first BAW/CL column pair).
[5] abbreviates: 5 μg/cm^2 as printed (second BAW/CL column pair).

Read-outs that look alike come from different tables or passages of the source.

As for `O=C(NCc1ccc(Cl)nc1)c1ccc(/C(F)=C/C(c2cc(Cl)c(Cl)c(Cl)c2)C(F)(F)F)cc1C(F)(F)F` (centres unmarked) [F11, (Z)—N-((6-Chloropyridin-3-yl)methyl)-4-(1,4,4,4-tetrafluoro-3-(3,4,5-trichlorophenyl)but-1-en-1-yl)-2-(trifluoromethyl)benzamide], the YFM entry in experiment [1] is on record as “A (80-100)”. The pest or weed control at 50 µg/cm2 in experiment [2] and in experiment [3] was 50 to 100% throughout.

For `O=C(NC1CC1)c1ccc(/C(F)=C/C(c2cc(Br)c(Cl)c(Br)c2)C(F)(F)F)cc1C(F)(F)F` (centres unmarked) [F12, (Z)—N-cyclopropyl-4-(3-(3,5-dibromo-4-chlorophenyl)-1,4,4,4-tetrafluorobut-1-en-1-yl)-2-(trifluoromethyl)benzamide], in experiment [1], the YFM entry is “A (80-100)”. The pest or weed control at 50 µg/cm2 in experiment [2] and in experiment [3] was 50 to 100% each time.

With `CC(NC(=O)c1ccc(/C(F)=C/C(c2cc(Cl)cc(Cl)c2)C(F)(F)F)cc1C(F)(F)F)C(F)(F)F` (centres unmarked) [F15, 4-((Z)-3-(3,5-Dichlorophenyl)-1,4,4,4-tetrafluorobut-1-en-1-yl)-2-(trifluoromethyl)-N-(1,1,1-trifluoropropan-2-yl)benzamide], in experiment [1], the YFM entry is on record as “A (80-100)”. The pest or weed control at 50 µg/cm2 in experiment [2] and in experiment [3] was 50 to 100% each time.

With `C[C@@H](NC(=O)c1ccc(/C(F)=C/C(c2ccc(Cl)c(Cl)c2)C(F)(F)F)cc1C(F)(F)F)C(F)(F)F` (stereo partly drawn) [F16, 4-((Z)-3-(3,4-Dichlorophenyl)-1,4,4,4-tetrafluorobut-1-en-1-yl)-2-(trifluoromethyl)-N—((R)-1,1,1-trifluoropropan-2-yl)benzamide], the YFM entry in experiment [1] is reported as “A (80-100)”. In addition, the pest or weed control at 50 µg/cm2 in experiment [2] and in experiment [3] was 50 to 100% in each case.

In the case of `O=C(NC1CCC(F)(F)CC1)c1ccc(/C(F)=C/C(c2cc(Cl)c(Br)c(Cl)c2)C(F)(F)F)cc1C(F)(F)F` (centres unmarked) [F21], the YFM result in experiment [1] was “A (80-100)”. In addition, the pest or weed control at 50 µg/cm2 in experiment [2] and in experiment [3] was 50 to 100% throughout.

For the compound `O=C(NC1CC1)c1ccc(/C(F)=C/C(c2cc(Cl)c(Br)c(Cl)c2)C(F)(F)F)cc1C(F)(F)F` (centres unmarked) [F22, (Z)-4-(3-(4-Bromo-3,5-dichlorophenyl)-1,4,4,4-tetrafluorobut-1-en-1-yl)-N-cyclopropyl-2-(trifluoromethyl)benzamide], in experiment [1], the YFM entry is given as “A (80-100)”. Besides, the pest or weed control at 50 µg/cm2 in experiment [2] and in experiment [3] was 50 to 100% throughout.

On to `O=C(NC1CC1)c1ccc(/C(F)=C/C(c2cc(Cl)cc(Cl)c2)C(F)(F)F)cc1C(F)(F)F` (centres unmarked) [F23, (Z)—N-Cyclopropyl-4-(3-(3,5-dichlorophenyl)-1,4,4,4-tetrafluorobut-1-en-1-yl)-2-(trifluoromethyl)benzamide], for which the YFM entry in experiment [1] was “A (80-100)”. The pest or weed control at 50 µg/cm2 in experiment [2] and in experiment [3] was 50 to 100% in each case.

As to `O=C(NC1CCC(F)(F)CC1)c1ccc(/C(F)=C/C(c2ccc(Cl)c(Cl)c2)C(F)(F)F)cc1C(F)(F)F` (centres unmarked) [F24, (Z)-4-(3-(3,4-Dichlorophenyl)-1,4,4,4-tetrafluorobut-1-en-1-yl)-N-(4,4-difluorocyclohexyl)-2-(trifluoromethyl)benzamide], in experiment [1], the YFM result is on record as “A (80-100)”. Besides, the pest or weed control at 50 µg/cm2 in experiment [2] and in experiment [3] was 50 to 100% each time.

Regarding `O=C(NC1CCC(F)(F)CC1)c1ccc(/C(F)=C/C(c2cc(Cl)cc(Cl)c2)C(F)(F)F)cc1C(F)(F)F` (centres unmarked) [F25, (Z)-4-(3-(3,5-Dichlorophenyl)-1,4,4,4-tetrafluorobut-1-en-1-yl)-N-(4,4-difluorocyclohexyl)-2-(trifluoromethyl)benzamide], the YFM entry in experiment [1] was “A (80-100)”. Moreover, the pest or weed control at 50 µg/cm2 in experiment [2] and in experiment [3] was 50 to 100% each time.

For the compound `O=C(Nc1ccc(Cl)nc1)c1ccc(/C(F)=C/C(c2cc(Cl)c(Cl)c(Cl)c2)C(F)(F)F)cc1C(F)(F)F` (centres unmarked) [F26], the YFM result in experiment [1] is reported as “A (80-100)”. Besides, the pest or weed control at 50 µg/cm2 in experiment [2] and in experiment [3] was 50 to 100% each time.

`CC(NC(=O)c1ccc(/C(F)=C/C(c2cc(Cl)c(F)c(Cl)c2)C(F)(F)F)cc1C(F)(F)F)C(F)(F)F` (centres unmarked) [F27, (Z)-4-(3-(3,5-Dichloro-4-fluorophenyl)-1,4,4,4-tetrafluorobut-1-en-1-yl)-2-(trifluoromethyl)-N-(1,1,1-trifluoropropan-2-yl)benzamide]: the YFM result in experiment [1] was “A (80-100)”. In addition, the pest or weed control at 50 µg/cm2 in experiment [2] and in experiment [3] was 50 to 100% in each case.

Take `CC(NC(=O)c1ccc(/C(F)=C/C(c2cc(Br)cc(Br)c2)C(F)(F)F)cc1C(F)(F)F)C(F)(F)F` (centres unmarked) [F28, (Z)-4-(3-(3,5-Dibromophenyl)-1,4,4,4-tetrafluorobut-1-en-1-yl)-2-(trifluoromethyl)-N-(1,1,1-trifluoropropan-2-yl)benzamide]: the YFM result in experiment [1] is on record as “A (80-100)”. The pest or weed control at 50 µg/cm2 in experiment [2] and in experiment [3] was 50 to 100% each time.

On to `N#CC1(NC(=O)c2ccc(/C(F)=C/C(c3cc(Cl)c(Cl)c(Cl)c3)C(F)(F)F)cc2C(F)(F)F)CC1` (centres unmarked) [F62, (Z)—N-(1-Cyanocyclopropyl)-4-(1,4,4,4-tetrafluoro-3-(3,4,5-trichlorophenyl)but-1-en-1-yl)-2-(trifluoromethyl)benzamide], for which the pest or weed control at 50 µg/cm2 in experiment [2] and in experiment [3] was 50 to 100% in each case.

Take `O=C(NC1CC(F)(F)C1)c1ccc(/C(F)=C/C(c2ccc(F)c(Cl)c2)C(F)(F)F)cc1C(F)(F)F` (centres unmarked) [F63, (Z)-4-(3-(3-Chloro-4-fluorophenyl)-1,4,4,4-tetrafluorobut-1-en-1-yl)-N-(3,3-difluorocyclobutyl)-2-(trifluoromethyl)benzamide]: the pest or weed control at 50 µg/cm2 in experiment [2] and in experiment [3] was 50 to 100% each time.

For `O=C(NCC(F)(F)F)c1ccc(/C(F)=C/C(c2cc(Cl)c(Cl)c(Cl)c2)C(F)(F)F)cc1` (centres unmarked) [FC1, (Z)-4-(1,4,4,4-tetrafluoro-3-(3,4,5-trichlorophenyl)but-1-en-1-yl)-N-(2,2,2-trifluoroethyl)benzamide], the mortality at 5 µg/cm2 is 25% in experiment [2] (setting [4]), 0% in experiment [2] (setting [5]), 100% in experiment [3] (setting [4]) and 6% in experiment [3] (setting [5]).

With `O=C(NC1CSC1)c1ccc(/C(F)=C/C(c2cc(Cl)c(Cl)c(Cl)c2)C(F)(F)F)cc1C(F)(F)F` (centres unmarked) [PF2, (Z)-4-(1,4,4,4-Tetrafluoro-3-(3,4,5-trichlorophenyl)but-1-en-1-yl)-N-(thietan-3-yl)-2-(trifluoromethyl)benzamide], the pest or weed control at 50 µg/cm2 in experiment [2] and in experiment [3] was 50 to 100% in each case.

As to `O=C(NC1C[S+]([O-])C1)c1ccc(/C(F)=C/C(c2cc(Cl)c(Cl)c(Cl)c2)C(F)(F)F)cc1C(F)(F)F` (centres unmarked) [PF3], the pest or weed control at 50 µg/cm2 in experiment [2] and in experiment [3] was 50 to 100% throughout.

Take `O=C(NC1CS(=O)(=O)C1)c1ccc(/C(F)=C/C(c2cc(Cl)c(Cl)c(Cl)c2)C(F)(F)F)cc1C(F)(F)F` (centres unmarked) [PF4, (Z)—N-(1,1-Dioxidothietan-3-yl)-4-(1,4,4,4-tetrafluoro-3-(3,4,5-trichlorophenyl)but-1-en-1-yl)-2-(trifluoromethyl)benzamide]: the pest or weed control at 50 µg/cm2 in experiment [2] and in experiment [3] was 50 to 100% each time.

One may read the pest or weed control as how far the test organism was held down. What is called mortality is the share of the test organisms that died.
